Test results from patent US8962842B2, “2-pyridone antimicrobial compositions” (priority 2010, dated 2015).
Where two headings read alike, the source gives them in different places.

Assays:
human topoisomerase I = target: T1, human topoisomerase I (Homo sapiens, UniProt P11387); experiment: Inhibition of topoisomerases activity in vitro, Topogen protocol TG1015 (Table 7); format: biochemical; details: read-out: IC50 hTopo I Assay
T1 construct: purchased Topogen Inc., Port Orange, USA TG1015
T1 sequence (P11387 1-765): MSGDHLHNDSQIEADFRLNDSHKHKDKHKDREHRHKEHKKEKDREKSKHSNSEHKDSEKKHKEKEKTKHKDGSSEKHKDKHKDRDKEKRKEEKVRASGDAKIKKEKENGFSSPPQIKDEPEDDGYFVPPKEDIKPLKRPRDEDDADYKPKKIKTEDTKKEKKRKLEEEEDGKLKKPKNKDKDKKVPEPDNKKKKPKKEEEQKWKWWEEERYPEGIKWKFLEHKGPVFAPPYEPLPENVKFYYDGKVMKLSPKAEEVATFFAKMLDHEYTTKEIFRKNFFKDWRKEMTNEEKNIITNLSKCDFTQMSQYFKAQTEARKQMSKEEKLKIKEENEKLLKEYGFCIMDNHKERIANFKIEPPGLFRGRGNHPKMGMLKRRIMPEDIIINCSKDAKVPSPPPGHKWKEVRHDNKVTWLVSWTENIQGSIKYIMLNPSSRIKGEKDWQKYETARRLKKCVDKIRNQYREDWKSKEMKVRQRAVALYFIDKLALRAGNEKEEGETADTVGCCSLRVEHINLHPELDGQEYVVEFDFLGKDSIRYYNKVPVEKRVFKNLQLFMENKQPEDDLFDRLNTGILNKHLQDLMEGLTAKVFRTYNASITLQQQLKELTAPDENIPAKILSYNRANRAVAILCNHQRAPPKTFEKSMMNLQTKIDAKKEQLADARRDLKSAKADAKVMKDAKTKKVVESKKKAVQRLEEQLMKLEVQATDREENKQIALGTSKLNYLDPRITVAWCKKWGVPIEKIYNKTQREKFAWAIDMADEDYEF

[1] = tested on: Bacterial strains injected into thigh muscles; format: in vivo, mice
[2] = tested on: Escherichia coli (6 strains); experiment: MIC range, broader panel of Quotient Bioresearch strains (Table 4); format: cell-based; details: for MIC50: read-out: MIC Range Median, Escherichia coli (6 strains)
[3] = tested on: Klebsiella pneumonia (4 strains); experiment: as above; format: cell-based; details: Klebsiella pneumoniae; for MIC50: read-out: MIC Range Median, Klebsiella pneumonia (4 strains)
[4] = tested on: Pseudomonas aeruginosa (12 strains); experiment: as above; format: cell-based; details: for MIC50: read-out: MIC Range Median, Pseudomonas aeruginosa (12 strains)
[5] = tested on: Burkholderia cepacia (5 strains); experiment: as above; format: cell-based; details: for MIC50: read-out: MIC Range Median, Burkholderia cepacia (5 strains)
[6] = tested on: Haemophilus influenza (5 strains); experiment: as above; format: cell-based, Haemophilus influenzae; details: for MIC50: 16 h, Median of the strain panel
[7] = tested on: Acinetobacter baumannii (12 strains); experiment: as above; format: cell-based; details: for MIC50: read-out: MIC Range Median, Acinetobacter baumannii (12 strains)
[8] = tested on: Acinetobacter baumannii, quinolone-resistant strains (Quotient Bioresearch catalogue); experiment: MIC against pathogens resistant against quinolones (Table 5); format: cell-based; details: Acinetobacter baumannii, GN54
bacterial gyrase = bacterial gyrase (Escherichia coli, UniProt P0AES4+P0AES6); experiment: Inhibition of topoisomerases activity in vitro, Topogen protocol TG1003 (Table 7); format: biochemical
bacterial gyrase, sequence (P0AES4 whole entry, one chain of several): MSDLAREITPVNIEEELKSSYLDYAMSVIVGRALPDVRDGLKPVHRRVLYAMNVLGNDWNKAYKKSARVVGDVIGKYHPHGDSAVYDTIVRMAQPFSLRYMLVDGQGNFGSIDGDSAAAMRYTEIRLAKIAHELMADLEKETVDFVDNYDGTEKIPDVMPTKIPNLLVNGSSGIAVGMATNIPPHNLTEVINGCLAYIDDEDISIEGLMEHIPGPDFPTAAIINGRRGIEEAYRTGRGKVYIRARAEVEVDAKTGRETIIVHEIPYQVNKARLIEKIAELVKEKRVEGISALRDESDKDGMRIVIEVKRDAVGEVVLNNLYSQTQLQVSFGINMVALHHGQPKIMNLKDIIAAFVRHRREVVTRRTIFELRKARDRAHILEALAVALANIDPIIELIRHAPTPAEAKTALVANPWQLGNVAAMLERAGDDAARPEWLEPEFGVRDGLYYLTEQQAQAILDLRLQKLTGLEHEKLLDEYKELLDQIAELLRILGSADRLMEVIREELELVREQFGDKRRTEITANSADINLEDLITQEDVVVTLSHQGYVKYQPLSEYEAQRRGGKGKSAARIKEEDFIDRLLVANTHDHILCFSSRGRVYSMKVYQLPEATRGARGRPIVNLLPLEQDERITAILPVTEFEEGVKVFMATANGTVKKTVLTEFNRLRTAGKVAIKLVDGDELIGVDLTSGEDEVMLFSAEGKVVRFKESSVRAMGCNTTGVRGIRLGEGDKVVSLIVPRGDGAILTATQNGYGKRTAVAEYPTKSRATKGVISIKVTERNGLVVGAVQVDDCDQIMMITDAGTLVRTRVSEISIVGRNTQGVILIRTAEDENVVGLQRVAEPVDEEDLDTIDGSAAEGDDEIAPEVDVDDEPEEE

[9] = target: bacterial topoisomerase IV (Escherichia coli, UniProt P0AFI2+P20083); experiment: Inhibition of topoisomerases activity in vitro, Topogen protocol TG1007 (Table 7); format: biochemical
bacterial topoisomerase IV, sequence (P20083 whole entry): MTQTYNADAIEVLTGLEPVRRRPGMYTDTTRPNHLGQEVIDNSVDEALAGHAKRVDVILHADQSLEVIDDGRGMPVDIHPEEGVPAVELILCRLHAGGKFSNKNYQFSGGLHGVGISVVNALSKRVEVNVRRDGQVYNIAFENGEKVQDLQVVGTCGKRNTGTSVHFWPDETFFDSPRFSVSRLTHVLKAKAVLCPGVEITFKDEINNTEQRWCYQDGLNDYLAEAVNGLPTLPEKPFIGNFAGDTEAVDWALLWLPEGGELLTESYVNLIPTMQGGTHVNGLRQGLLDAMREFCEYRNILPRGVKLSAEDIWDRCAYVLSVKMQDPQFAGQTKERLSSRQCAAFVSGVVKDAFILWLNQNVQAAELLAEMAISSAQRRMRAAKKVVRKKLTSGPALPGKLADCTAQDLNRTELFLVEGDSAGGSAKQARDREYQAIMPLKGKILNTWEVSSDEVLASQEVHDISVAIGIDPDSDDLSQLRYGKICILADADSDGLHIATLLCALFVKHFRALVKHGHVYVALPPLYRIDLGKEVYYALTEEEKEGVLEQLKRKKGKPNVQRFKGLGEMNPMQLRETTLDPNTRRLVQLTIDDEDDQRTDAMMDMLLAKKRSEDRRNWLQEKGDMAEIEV
bacterial topoisomerase IV, sequence (P0AFI2 whole entry): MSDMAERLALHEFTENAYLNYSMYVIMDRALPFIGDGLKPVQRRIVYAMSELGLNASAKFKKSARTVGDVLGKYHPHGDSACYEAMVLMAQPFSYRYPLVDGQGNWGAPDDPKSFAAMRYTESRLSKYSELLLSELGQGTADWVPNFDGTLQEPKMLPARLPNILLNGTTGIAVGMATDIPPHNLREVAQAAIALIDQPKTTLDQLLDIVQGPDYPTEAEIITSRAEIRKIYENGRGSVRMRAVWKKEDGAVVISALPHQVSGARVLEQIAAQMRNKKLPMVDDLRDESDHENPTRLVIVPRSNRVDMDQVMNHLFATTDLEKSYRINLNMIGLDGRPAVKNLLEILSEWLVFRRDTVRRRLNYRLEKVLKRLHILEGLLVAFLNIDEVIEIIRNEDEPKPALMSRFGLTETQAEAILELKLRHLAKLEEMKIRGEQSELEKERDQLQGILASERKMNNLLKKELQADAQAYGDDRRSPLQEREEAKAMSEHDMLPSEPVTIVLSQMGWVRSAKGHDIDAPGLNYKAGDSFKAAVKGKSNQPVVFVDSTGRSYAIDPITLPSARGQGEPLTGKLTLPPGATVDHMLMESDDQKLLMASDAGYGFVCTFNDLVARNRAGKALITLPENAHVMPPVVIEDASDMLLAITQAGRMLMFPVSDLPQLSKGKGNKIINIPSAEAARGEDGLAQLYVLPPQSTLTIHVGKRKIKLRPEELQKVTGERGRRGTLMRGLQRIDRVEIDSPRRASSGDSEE

[10] = Metabolic stability in liver microsomes +/- S9 fraction (Table 8); format: in vitro ADME; details: 1 μM
Experimental: Metabolic stability of a select number of examples was tested in liver microsomes+/−addition of S9 fraction as described by Kuhnz, W. and Gieschen, H. (1998), Drug Metab. Dispos., 1120-1127. Test concentration was 1 μM and HPLC/MS-MS was used for detection.

physchem = format: physicochemical; details: thermodynamic from solid
Experimental: The solutions were incubated at room temperature for 24 hours before quantification by HPLC detection. Aqueous solubility was evaluated in simulated gastric fluid (SGF), simulated intestinal fluid (SIF) and phosphate buffer saline (PBS) pH 7.4. Aqueous solubility is expressed in Table 11 as mean solubility in μM.

[11] = tested on: Staphylococcus aureus (16 strains); experiment: MIC range, broader panel of Quotient Bioresearch strains (Table 3); details: for MIC50: read-out: MIC Range Median, Staphylococcus aureus (16 strains)
[12] = tested on: Enterococcus faecalis (5 strains); experiment: as above; details: for MIC50: read-out: MIC Range Median, Enterococcus faecalis (5 strains)
[13] = tested on: Enterococcus faecium (3 strains); experiment: as above; details: for MIC: read-out: MIC Range Low, Enterococcus faecium (3 strains); for MIC50: read-out: MIC Range Median, Enterococcus faecium (3 strains)
[14] = tested on: Streptococcus pneumonia (5 strains); experiment: as above; details: Streptococcus pneumoniae; for MIC: read-out: MIC Range Low, Streptococcus pneumonia (5 strains); for MIC50: read-out: MIC Range Median, Streptococcus pneumonia (5 strains)
[15] = tested on: Streptococcus pyogenes (4 strains); experiment: as above; details: for MIC50: read-out: MIC Range Median, Streptococcus pyogenes (4 strains)
[16] = tested on: Group C Streptococcus (4 strains); experiment: as above; details: for MIC50: read-out: MIC Range Median, Group C Streptococcus (4 strains)
[17] = read-out: MIC Range High, Escherichia coli (6 strains)
[18] = read-out: MIC Range Low, Escherichia coli (6 strains)
[19] = read-out: MIC Range High, Klebsiella pneumonia (4 strains)
[20] = read-out: MIC Range Low, Klebsiella pneumonia (4 strains)
[21] = read-out: MIC Range High, Pseudomonas aeruginosa (12 strains)
[22] = read-out: MIC Range Low, Pseudomonas aeruginosa (12 strains)
[23] = read-out: MIC Range High, Burkholderia cepacia (5 strains)
[24] = read-out: MIC Range Low, Burkholderia cepacia (5 strains)
[25] = High of the strain panel, read-out: MIC Range High, Haemophilus influenza (5 strains)
[26] = Low of the strain panel, read-out: MIC Range Low, Haemophilus influenza (5 strains)
[27] = read-out: MIC Range High, Acinetobacter baumannii (12 strains)
[28] = read-out: MIC Range Low, Acinetobacter baumannii (12 strains)
[29] = read-out: MIC Range Low, Staphylococcus aureus (16 strains)
[30] = read-out: MIC Range High, Enterococcus faecalis (5 strains)
[31] = read-out: MIC Range Low, Enterococcus faecalis (5 strains)
[32] = read-out: MIC Range High, Streptococcus pyogenes (4 strains)
[33] = read-out: MIC Range Low, Streptococcus pyogenes (4 strains)
[34] = read-out: MIC Range High, Group C Streptococcus (4 strains)
[35] = read-out: MIC Range Low, Group C Streptococcus (4 strains)

Structure (SMILES): O=C(O)c1cn(C2CC2)c2cc(N3CCNCC3)c(F)cc2c1=O [Ciprofloxacin, reference compound]
- IC50 (human topoisomerase I): > 150 µM
- Log reduction (LgR) from vehicle control (CFU/g) ([1]; MRSA ATCC 43300, mouse thigh, 20 mg/kg i.v. TDS): 2.36

Structure (SMILES): Cc1c(-c2ccc(N)nc2)ccn2c(=O)c(C(=O)[O-])cc(C3CC3)c12.[K+] [Example 21 K salt, potassium 8-(6-amino-pyridin-3-yl)-1-cyclopropyl-9-methyl-4-oxo-4H-quinolizine-3-carboxylate]
- MIC [2, 17]: 32 µg/mL
- MIC [2, 18]: ≤ 0.015 µg/mL
- MIC50 [2]: 16 µg/mL
- MIC [3, 19]: 32 µg/mL
- MIC [3, 20]: 0.06 µg/mL
- MIC50 [3]: 9 µg/mL
- MIC [4, 21]: 32 µg/mL
- MIC [4, 22]: 0.5 µg/mL
- MIC50 [4]: 8 µg/mL
- MIC [5, 23]: 0.25 µg/mL
- MIC [5, 24]: 0.12 µg/mL
- MIC50 [5]: 0.25 µg/mL
- MIC50 [6]: ≤ 0.015 µg/mL
- MIC [6, 25]: ≤ 0.015 µg/mL
- MIC [6, 26]: ≤ 0.015 µg/mL
- MIC [7, 27]: 16 µg/mL
- MIC [7, 28]: 0.03 µg/mL
- MIC50 [7]: 4 µg/mL
- MIC [8]: 4 µg/mL
- IC50 (bacterial gyrase): ≤ 1490 nM
- IC50 [9]: ≤ 2.33 µM
- Mean Parent Remaining ([10]; Liver microsomes + S9, human): 93%
- Mean Parent Remaining ([10]; Liver microsomes + S9, mouse): 97%
- Mean Parent Remaining ([10]; Liver microsomes, human): 85%
- Mean Parent Remaining ([10]; Liver microsomes, mouse): 87%
- Log reduction (LgR) from vehicle control (CFU/g) ([1]; E. coli ATCC 25922, mouse thigh, 30 mg/kg TDS p.o.): 3.13
- Log reduction (LgR) from vehicle control (CFU/g) ([1]; MRSA ATCC 43300, mouse thigh, 30 mg/kg TDS p.o.): 4.93
- solubility at 24 h (physchem; fassgf or other biorelevant): 200 µM
- solubility at 24 h (physchem; pH 7.4, aqueous buffer): 200 µM
- solubility at 24 h (physchem; simulated gastric fluid): 200 µM
- MIC [11, 29]: ≤ 0.015 µg/mL
- MIC50 [11]: 0.25 µg/mL
- MIC [12, 30]: 2 µg/mL
- MIC [12, 31]: 0.03 µg/mL
- MIC50 [12]: 0.12 µg/mL
- MIC [13]: 0.25 µg/mL
- MIC50 [13]: 1 µg/mL
- MIC [14]: 0.06 µg/mL
- MIC50 [14]: 0.06 µg/mL
- MIC [15, 32]: 0.12 µg/mL
- MIC [15, 33]: 0.06 µg/mL
- MIC50 [15]: 0.06 µg/mL
- MIC [16, 34]: 0.06 µg/mL
- MIC [16, 35]: 0.03 µg/mL
- MIC50 [16]: 0.03 µg/mL

Structure (SMILES): Cc1c(-c2cc(F)c(N)cc2F)ccn2c(=O)c(C(=O)[O-])cc(C3CC3)c12.[K+] [Example 28 K salt, potassium 8-(4-amino-2,5-difluoro-phenyl)-1-cyclopropyl-9-methyl-4-oxo-4H-quinolizine-3-carboxylate]
- MIC [2, 17]: 32 µg/mL
- MIC [2, 18]: 0.03 µg/mL
- MIC50 [2]: 16 µg/mL
- MIC [3, 19]: > 32 µg/mL
- MIC [3, 20]: 0.12 µg/mL
- MIC50 [3]: 18 µg/mL
- MIC [4, 21]: > 32 µg/mL
- MIC [4, 22]: 1 µg/mL
- MIC50 [4]: 6 µg/mL
- MIC [5, 23]: 0.5 µg/mL
- MIC [5, 24]: 0.12 µg/mL
- MIC50 [5]: 0.25 µg/mL
- MIC50 [6]: ≤ 0.015 µg/mL
- MIC [6, 25]: ≤ 0.015 µg/mL
- MIC [6, 26]: ≤ 0.015 µg/mL
- MIC [7, 27]: 16 µg/mL
- MIC [7, 28]: 0.06 µg/mL
- MIC50 [7]: 8 µg/mL
- MIC [8]: 2 µg/mL
- IC50 (bacterial gyrase): 680 nM
- IC50 [9]: ≤ 8.45 µM
- IC50 (human topoisomerase I): 135 µM
- Mean Parent Remaining ([10]; Liver microsomes + S9, human): 93%
- Mean Parent Remaining ([10]; Liver microsomes + S9, mouse): 48%
- Mean Parent Remaining ([10]; Liver microsomes, human): 97%
- Mean Parent Remaining ([10]; Liver microsomes, mouse): 30%
- solubility at 24 h (physchem; fassgf or other biorelevant): 153 µM
- solubility at 24 h (physchem; pH 7.4, aqueous buffer): 6 µM
- solubility at 24 h (physchem; simulated gastric fluid): 12 µM
- MIC ([11]; read-out: MIC Range High, Staphylococcus aureus (16 strains)): 0.12 µg/mL
- MIC [11, 29]: ≤ 0.015 µg/mL
- MIC50 [11]: 0.06 µg/mL
- MIC [12, 30]: 0.5 µg/mL
- MIC [12, 31]: ≤ 0.015 µg/mL
- MIC50 [12]: 0.25 µg/mL
- MIC [13]: 0.12 µg/mL
- MIC50 [13]: 0.25 µg/mL
- MIC [14]: 0.03 µg/mL
- MIC50 [14]: 0.06 µg/mL
- MIC [15, 32]: 0.06 µg/mL
- MIC [15, 33]: 0.03 µg/mL
- MIC50 [15]: 0.06 µg/mL
- MIC [16, 34]: 0.06 µg/mL
- MIC [16, 35]: 0.03 µg/mL
- MIC50 [16]: 0.045 µg/mL
